Source: patent US11446287B2, “Compounds and methods for EP300 or CBP modulation and indications therefor” (Opna Immuno-Oncology SA, priority 2019, dated 2022)

Each compound was assayed against T1, Recombinant human EP300 containing the bromodomain (EP300-BD (1040-1161)) (Homo sapiens, UniProt Q09472) (assay: EP300 Alphascreen binding assay).
T1 construct: Recombinant human EP300 bromodomain (EP300-BD (1040-1161)); made in house; host or cells: E. coli BL21-CodonPlus (DE3), modified pET vector
T1 sequence (Q09472 1040-1161): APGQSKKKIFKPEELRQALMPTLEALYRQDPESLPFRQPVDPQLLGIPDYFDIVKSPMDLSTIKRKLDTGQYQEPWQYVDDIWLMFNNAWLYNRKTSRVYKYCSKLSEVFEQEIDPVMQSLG
How it was run: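 Displacement of a biotinylated acetyl-K56 histone H3 peptide from the N-His bromodomain construct (1040-1161) measured by AlphaScreen proximity, beads at 7.5 μg/ml final, read 60 min after addition. Protein, peptide and compound first incubated 1 h at room temperature, pH 7.5 HEPES buffer; IC50 by four-parameter logistic fit.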
Work on `Cc1cc(C(=O)O)ccc1-c1c(C(F)(F)F)n([C@@H](C)c2ccccn2)c2cc(-c3c(C)noc3C)cnc12` [P-0235, (S)-4-(6-(3,5-dimethylisoxazol-4-yl)-1-(1-(pyridin-2-yl)ethyl)-2-(trifluoromethyl)-1H-pyrrolo[3,2-b]pyridin-3-yl)-3-methylbenzoic acid] yielded an IC50 of 0.1 to 1000 nM. For `COc1cc(C(=O)O)ccc1-c1c(C(F)(F)F)n([C@@H](C)c2ccccn2)c2cc(-c3c(C)noc3C)cnc12` [P-0236, (S)-4-(6-(3,5-dimethylisoxazol-4-yl)-1-(1-(pyridin-2-yl)ethyl)-2-(trifluoromethyl)-1H-pyrrolo[3,2-b]pyridin-3-yl)-3-methoxybenzoic acid], the IC50 was 0.1 to 1000 nM. `Cc1noc(C)c1-c1cnc2c(-c3cn(C)nc3C3CC3)c(C(F)(F)F)n([C@@H](C)c3ccccn3)c2c1` [P-0237, (S)-4-(3-(3-cyclopropyl-1-methyl-1H-pyrazol-4-yl)-1-(1-(pyridin-2-yl)ethyl)-2-(trifluoromethyl)-1H-pyrrolo[3,2-b]pyridin-6-yl)-3,5-dimethylisoxazole] showed an IC50 of 0.1 to 1000 nM. `Cc1noc(C)c1-c1cnc2c(-c3cc(C(=O)O)ccc3F)c(C(F)(F)F)n([C@@H](C)c3ccccn3)c2c1` [P-0238, (S)-3-(6-(3,5-dimethylisoxazol-4-yl)-1-(1-(pyridin-2-yl)ethyl)-2-(trifluoromethyl)-1H-pyrrolo[3,2-b]pyridin-3-yl)-4-fluorobenzoic acid] showed an IC50 of 0.1 to 1000 nM. In the case of `COc1ccc(C(=O)O)cc1-c1c(C(F)(F)F)n([C@@H](C)c2ccccn2)c2cc(-c3c(C)noc3C)cnc12` [P-0239, (S)-3-(6-(3,5-dimethylisoxazol-4-yl)-1-(1-(pyridin-2-yl)ethyl)-2-(trifluoromethyl)-1H-pyrrolo[3,2-b]pyridin-3-yl)-4-methoxybenzoic acid], the IC50 is reported as 0.1 to 1000 nM. For `Cc1noc(C)c1-c1cnc2c(-c3cc(F)cc(C(=O)O)c3)c(C(F)(F)F)n([C@@H](C)c3ccccn3)c2c1` [P-0240, (S)-3-(6-(3,5-dimethylisoxazol-4-yl)-1-(1-(pyridin-2-yl)ethyl)-2-(trifluoromethyl)-1H-pyrrolo[3,2-b]pyridin-3-yl)-5-fluorobenzoic acid], the IC50 was 0.1 to 1000 nM. In the case of `Cc1noc(C)c1-c1cnc2c(-c3cc(Cl)cc(C(=O)O)c3)c(C(F)(F)F)n([C@@H](C)c3ccccn3)c2c1` [P-0241, (S)-3-chloro-5-(6-(3,5-dimethylisoxazol-4-yl)-1-(1-(pyridin-2-yl)ethyl)-2-(trifluoromethyl)-1H-pyrrolo[3,2-b]pyridin-3-yl)benzoic acid], the IC50 is reported as 0.1 to 1000 nM. Work on `Cc1noc(C)c1-c1cnc2c(-c3ccc(C(=O)O)c(F)c3)c(C(F)(F)F)n([C@@H](C)c3ccccn3)c2c1` [P-0242, (S)-4-(6-(3,5-dimethylisoxazol-4-yl)-1-(1-(pyridin-2-yl)ethyl)-2-(trifluoromethyl)-1H-pyrrolo[3,2-b]pyridin-3-yl)-2-fluorobenzoic acid] yielded an IC50 of 1000 to 8000 nM.
